Test results published in PMC9740910, “Influence of Degree of Polymerization of Low-Molecular-Weight Chitosan Oligosaccharides on the α-Glucosidase Inhibition” (Molecules, 2022).

Target: Saccharomyces cerevisiae α-glucosidase (Saccharomyces cerevisiae, UniProt P53341)
Experiment: Inhibition kinetic of α-glucosidase (Lineweaver–Burk and Michaelis–Menten fits)
Assay type: biochemical
Procedure: The data were fitted into both the Lineweaver–Burk and the Michaelis–Menten equation to determine the inhibition mode of the α-glucosidase for each of the COS mixtures.
The kinetic parameters, i.e., KM, Vmax, and the kinetic constants (Ki and Kii), were determined by fitting the data into the Michaelis–Menten equation [40] using the GraphPad Prism 8.0 software programs (GraphPad Inc., La Jolla, CA, USA) for Windows. The Michaelis–Menten equation, which expresses a relationship between the substrate concentration and the reaction velocity is given as follows:(3) V=Vmax [S]/ KM(1+[I]/Ki)+[S](1+[I]/Kii) where Ki represents the kinetic binding constants of the free enzymes, Kii represents the kinetic binding constant of the enzyme–substrate complex, V represents the velocity, Vmax represents the maximum velocity, KM represents the Michaelis’ constant, [S] represents the substrate concentration, and [I] represents the inhibitor concentration. The α values were calculated to determine the inhibition modes and the inhibitor binding preference.

Chain of Saccharomyces cerevisiae α-glucosidase (P53341 whole entry): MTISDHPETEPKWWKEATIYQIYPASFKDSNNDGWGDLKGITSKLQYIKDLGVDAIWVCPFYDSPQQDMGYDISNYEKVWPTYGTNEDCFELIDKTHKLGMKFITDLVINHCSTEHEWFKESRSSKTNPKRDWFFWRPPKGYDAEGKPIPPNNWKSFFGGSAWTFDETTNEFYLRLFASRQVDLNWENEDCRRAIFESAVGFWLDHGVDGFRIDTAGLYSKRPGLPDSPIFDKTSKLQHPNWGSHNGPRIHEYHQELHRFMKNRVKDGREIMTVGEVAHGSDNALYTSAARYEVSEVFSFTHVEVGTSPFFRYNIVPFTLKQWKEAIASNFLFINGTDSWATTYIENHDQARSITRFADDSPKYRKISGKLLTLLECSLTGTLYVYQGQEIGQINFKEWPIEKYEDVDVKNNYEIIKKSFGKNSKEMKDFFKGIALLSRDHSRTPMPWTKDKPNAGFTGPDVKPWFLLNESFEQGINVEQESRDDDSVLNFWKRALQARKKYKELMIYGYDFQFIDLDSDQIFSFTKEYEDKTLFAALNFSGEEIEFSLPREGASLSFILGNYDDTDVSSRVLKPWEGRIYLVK

## C[C@H]1O[C@H](O[C@H]2[C@H](O)[C@@H](O)[C@@H](O[C@H]3[C@H](O)[C@@H](O)C(O)O[C@@H]3CO)O[C@@H]2CO)[C@H](O)[C@@H](O)[C@@H]1N[C@H]1C=C(CO)[C@@H](O)[C@H](O)[C@H]1O (some centres unmarked) [Acarbose, acarbose]
  Type of Inhibition: Competitive
  α value from mixed-mode inhibition: 1.86
